From patent US20190327974A1, “SYNERGISTS FOR IMPROVED PESTICIDES” (priority 2017, published 2019)
Numbering of substitutions follows the chain as printed. Read-outs that look alike come from different tables or passages of the source.

What was measured:
wildtype LcαE7 = biological target: T1, wildtype LcαE7 (Lucilia cuprina, UniProt Q25252); experiment: Enzyme inhibition assay with 4-nitrophenol butyrate, wild-type; format: biochemical
T1 sequence (Q25252 1-570): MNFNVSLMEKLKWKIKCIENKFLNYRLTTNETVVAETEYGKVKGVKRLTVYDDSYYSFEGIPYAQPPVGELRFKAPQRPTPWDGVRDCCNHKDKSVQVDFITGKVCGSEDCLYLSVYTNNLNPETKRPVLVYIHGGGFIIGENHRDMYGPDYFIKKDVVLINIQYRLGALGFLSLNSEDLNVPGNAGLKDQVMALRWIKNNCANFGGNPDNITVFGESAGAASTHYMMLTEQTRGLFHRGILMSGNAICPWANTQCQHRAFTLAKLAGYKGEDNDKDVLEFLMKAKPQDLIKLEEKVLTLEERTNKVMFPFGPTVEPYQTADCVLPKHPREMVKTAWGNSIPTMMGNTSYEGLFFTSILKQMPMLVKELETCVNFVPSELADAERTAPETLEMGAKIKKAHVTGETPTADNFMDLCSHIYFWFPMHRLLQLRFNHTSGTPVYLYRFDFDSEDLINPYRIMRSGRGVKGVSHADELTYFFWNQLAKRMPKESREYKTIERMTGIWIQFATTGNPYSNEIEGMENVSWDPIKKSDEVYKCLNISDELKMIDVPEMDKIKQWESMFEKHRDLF
Description: Wild-type LcαE7 was heterologously expressed in Escherichia coli and purified using metal ion affinity and size exclusion chromatography. The potency of the boronic acids was determined by enzymatic assays of recombinant LcαE7 with the model carboxylester substrate 4-nitrophenol butyrate.
(§1) Inhibition of wild-type αE7 and the Gly137Asp αE7 variant was determined by a competition assay between the native-substrate analogue 4-nitrophenol butyrate (Sigma) and the boronic acid compounds. Initially, the Michalis constant (KM) with 4-nitrophenol butyrate was measured for both enzymes to determine an appropriate concentration of substrate for use in the competition assays. Formation of the 4-nitrophenolate product of hydrolysis was monitored at 405 nm in the presence of enzyme and eight different concentrations of substrate. 4-nitrophenol butyrate was prepared in methanol to 100 mM and serially diluted 1-in-2 to achieve concentrations from 100 mM to 0.8 mM. Enzyme stocks were prepared in 4 mg/ml bovine serum albumin (Sigma) to maintain enzyme stability. Reactions were prepared by pipetting 178 μl assay buffer (100 mM NaCl, 20 mM HEPES pH 7.5) and 2 μl substrate (final concentrations of 1000 to 8 μM) into 300 μl wells of a 96-well plate. The reaction was initiated by the addition of 20 μl enzyme (final concentration 2.5 nM for wildtype αE7 and 4 nM for Gly137Asp αE7). Product formation was monitored for four minutes at room temperature using an Epoch microplate spectrophotometer (BioTek) and the initial rates of ester hydrolysis were determined by linear regression using GraphPad Prism. The Michalis constant was determined by fitting the initial rates to the Michalis-Menton equation (FIG. 10).
(§2) Enzyme inhibition with the boronic acid compounds was determined by assaying the initial rate of 4-nitrophenol butyrate hydrolysis in the presence of either neat DMSO or the boronic acid compounds in DMSO. Compounds were prepared by serially diluting 1-in-3 an initial 10 mM stock to achieve concentrations from 10 mM to 2 nM. Reactions were prepared by pipetting 178 μl assay buffer supplemented with substrate to a final concentration equal to the KM of the enzyme (15 μM for wildtype αE7 and 250 μM for Gly137Asp αE7) into wells of a 96-well plate. 2 μl neat DMSO or 2 μl serially diluted inhibitor (final concentrations of 100 μM to 20 pM) were added to the wells. The reaction was initiated by the addition of 20 μl enzyme (final concentration 0.5 nM for wildtype αE7 and 10 nM for Glyl37Asp αE7). Product formation was monitored for four minutes at room temperature and the initial rates of ester hydrolysis were determined by linear regression. To determine the concentration of boronic acid compounds required to inhibit 50% of esterase activity (IC50), a four-parameter sigmoidal dose-response curve was fitted to percentage inhibition using GraphPad Prism (FIGS. 7 and 8). Ki values were determined using the Cheng-Prusoff equation assuming competitive inhibition (Yung-Chi, C. & Prusoff W. H. Relationship between the inhibition constant (KI) and the concentration of inhibitor which causes 50 percent inhibition (150) of an enzymatic reaction. Biochem. Pharmacol. 22, 3099-3108 (1973)).

Gly137Asp LcαE7 = biological target: T2, Gly137Asp LcαE7 (Lucilia cuprina, UniProt Q25252, G137D); experiment: Enzyme inhibition assay with 4-nitrophenol butyrate, Gly137Asp variant; format: biochemical
T2 sequence (Q25252 1-570 G137D): T1 sequence (Q25252 1-570) with G137D
Description: as §1, §2
The two most common CBE-mediated insecticide resistance mechanisms involve increased protein expression, or mutation to gain new catalytic (OP-hydrolase) functions. Compounds 1 to 5 were tested against the resistance associated Gly137Asp variant of LcαE7^17,27 (Table 1). The Glyl37Asp mutation is located in the oxyanion hole and positions a new general base in the active site to catalyze dephosphorylation of the catalytic serine. Thus, compounds that inhibit WT LcαE7 as well as this common resistance associated Glyl37Asp variant would increase the efficacy of OPs by targeting both detoxification routes. Encouraged by the activity of the boronic acids 1 to 5, the compounds were tested against the Gly137Asp variant of LcαE7 (Table 1).

Compound	Ki (wildtype LcαE7) [nM]	Ki (Gly137Asp LcαE7) [nM]	Ki (wildtype LcαE7; Cheng-Prusoff from dose-response, 4-nitrophenol butyrate, read-out: Ki wildtype LcαE7) [nM]	Ki (Gly137Asp LcαE7; Cheng-Prusoff from dose-response, 4-nitrophenol butyrate, read-out: Ki Gly137Asp LcαE7) [nM]
OB(O)c1ccccc1 [PBA, phenylboronic acid, reference compound]	210	450	–	–
OB(O)c1cc(Br)cc2c1OCC2 [Compound 3.5]	3.4	440	–	–
OB(O)c1cc(Br)cc(N2CCCCC2)c1 [Compound 3.3]	0.47	150	–	–
OB(O)c1ccc2ccccc2c1 [Compound 4]	7.2	190	–	–
Cc1ccc(B(O)O)cc1Br [Compound 1]	12	49	–	–
OB(O)c1cc(Br)c2ccccc2c1F [Compound 3.6]	6	71	–	–
OB(O)c1cc(Br)cc(OCc2ccccc2)c1 [Compound 3.9]	0.44	25	–	–
Cc1ccc(B(O)O)cc1OCc1ccccc1 [Compound 2]	2.9	29	–	–
OB(O)c1cc(Br)cc(N2CCCC2)c1 [Compound 3]	0.25	110	–	–
OB(O)c1cc(Br)cc(Oc2ccccc2)c1 [Compound 3.10, 3-Bromo-5-phenoxyfenylboronic acid]	0.44	18	–	–
CN1CCN(c2cc(Br)cc(B(O)O)c2)CC1 [Compound 3.4]	3.8	1000	–	–
O=C(c1cc(Cl)cc(B(O)O)c1)N1CCOCC1 [Compound 3.11]	5.8	1000	–	–
OB(O)c1ccc(OCc2ccccc2F)c(Cl)c1 [Compound 5, 3-Chloro-4(2′-fluorobenzyloxy) phenylboronic acid]	11	170	–	–
CC(C)Oc1cc(Br)cc(B(O)O)c1 [Compound 3.7, 3-Bromo-5-isopropoxyphenylboronic acid]	0.3	76	–	–
OB(O)c1cc(Br)cc(OC(F)(F)F)c1 [Compound 3.8]	2	110	–	–
CC(C)(C)Oc1ccc(B(O)O)cc1Br [Compound 3.12]	12	990	–	–
OB(O)c1cc(Br)cc(N2CCOCC2)c1 [Compound 3.1]	–	–	0.7	430
